Experimental data: patent publication US20220242846A1, “ISOINDOLINONE COMPOUNDS” (Monte Rosa Therapeutics AG, priority 2019, published 2022)
pIC50: −log10 of the molar value.

Tests used:
[1] = target: T1, Full length wild-type cereblon CRBN (Homo sapiens, UniProt Q96SW2); test: Fluorescence polarization (FP) assay indicating cereblon binding; conditions: CRBN 80.0 nM, fluorescent probe 5 nM, FP measured after 12 hours; read-out: rFP IC50
T1 construct: Full length wild-type cereblon CRBN (80.0 nM, 10 μL) was incubated in assay buffer
T1 sequence (Q96SW2 whole entry): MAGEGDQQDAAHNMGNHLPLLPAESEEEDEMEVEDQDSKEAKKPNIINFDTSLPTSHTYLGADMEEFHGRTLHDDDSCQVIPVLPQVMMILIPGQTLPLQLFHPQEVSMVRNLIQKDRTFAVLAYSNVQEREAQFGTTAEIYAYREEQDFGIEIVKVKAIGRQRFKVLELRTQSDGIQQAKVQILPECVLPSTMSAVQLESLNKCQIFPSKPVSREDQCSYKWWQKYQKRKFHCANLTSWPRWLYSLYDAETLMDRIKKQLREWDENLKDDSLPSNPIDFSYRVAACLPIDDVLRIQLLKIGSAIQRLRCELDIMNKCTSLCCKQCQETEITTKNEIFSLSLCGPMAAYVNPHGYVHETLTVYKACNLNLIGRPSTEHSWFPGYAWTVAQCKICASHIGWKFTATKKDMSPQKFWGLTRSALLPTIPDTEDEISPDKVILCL
Outline: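 Full-length wild-type human CRBN (80.0 nM) preincubated 30 min at room temperature with compound (12-point curve, 300-0.937 or 3000-9.3 nM) in HEPES pH 8.0, NaCl, TCEP, Tween 20. Thalidomide-based Cy5-type probe then added at 5 nM final; FP read after 12 h (ex 590, em 675 nm), normalized to DMSO, IC50 derived.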

IKZF1 = target: T2, IKZF1 (Homo sapiens, UniProt Q13422); test: Selectivity determination by Western Blot assay in MM1S cells: IKZF1; assay type: cell-based; set-up: key: A represents a no degradation observed at 30 μM; B represents trace degradation at 30 μM (below 20%); C represents weak degradation at 30 μM (below 50%); D represents degradation at 30 μM (>90%); E represents degradation at 3 μM (>90%); F represents degradation at 0.3 μM (>90%); conditions: MM1S cells, 0.3, 3 and 30 μM, 6 hours
T2 construct: MM1S cells were purchased from ATCC (cat. Number CRL-2974); endogenous in cells; host or cells: MM1S (ATCC CRL-2974)
T2 sequence (Q96SW2 whole entry partner): as the sequence (Q96SW2 whole entry) above
T2 sequence (Q16531 2-1140 partner limits assumed): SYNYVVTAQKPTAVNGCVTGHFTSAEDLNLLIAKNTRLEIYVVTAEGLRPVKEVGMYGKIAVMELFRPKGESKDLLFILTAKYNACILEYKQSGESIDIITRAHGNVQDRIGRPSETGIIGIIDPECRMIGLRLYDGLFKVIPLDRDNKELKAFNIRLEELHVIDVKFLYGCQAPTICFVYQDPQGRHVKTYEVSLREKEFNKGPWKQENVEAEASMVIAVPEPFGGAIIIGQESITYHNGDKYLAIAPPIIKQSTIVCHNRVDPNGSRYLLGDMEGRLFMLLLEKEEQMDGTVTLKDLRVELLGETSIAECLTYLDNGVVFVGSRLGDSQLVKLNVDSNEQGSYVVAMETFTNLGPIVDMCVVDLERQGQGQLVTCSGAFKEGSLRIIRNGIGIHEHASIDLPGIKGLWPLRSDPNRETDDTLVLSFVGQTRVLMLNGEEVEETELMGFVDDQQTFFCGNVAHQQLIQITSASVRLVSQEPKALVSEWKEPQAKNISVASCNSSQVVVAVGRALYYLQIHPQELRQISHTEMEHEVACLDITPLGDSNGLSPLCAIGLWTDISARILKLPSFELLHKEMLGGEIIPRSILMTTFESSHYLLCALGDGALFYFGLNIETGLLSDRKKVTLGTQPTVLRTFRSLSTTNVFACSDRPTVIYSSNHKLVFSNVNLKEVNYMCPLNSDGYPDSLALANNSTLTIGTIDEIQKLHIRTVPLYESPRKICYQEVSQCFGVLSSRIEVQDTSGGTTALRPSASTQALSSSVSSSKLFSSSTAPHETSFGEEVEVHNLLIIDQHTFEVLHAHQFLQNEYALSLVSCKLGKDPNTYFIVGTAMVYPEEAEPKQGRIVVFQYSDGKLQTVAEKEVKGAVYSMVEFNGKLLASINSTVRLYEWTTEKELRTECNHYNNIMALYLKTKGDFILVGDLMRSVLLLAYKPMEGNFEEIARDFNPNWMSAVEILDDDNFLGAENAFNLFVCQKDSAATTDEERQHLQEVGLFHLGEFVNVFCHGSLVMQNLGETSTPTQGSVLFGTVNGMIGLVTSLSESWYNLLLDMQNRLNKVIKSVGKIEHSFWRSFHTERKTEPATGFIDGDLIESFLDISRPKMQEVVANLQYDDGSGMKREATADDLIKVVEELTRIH
T2 sequence (Q13422 whole entry): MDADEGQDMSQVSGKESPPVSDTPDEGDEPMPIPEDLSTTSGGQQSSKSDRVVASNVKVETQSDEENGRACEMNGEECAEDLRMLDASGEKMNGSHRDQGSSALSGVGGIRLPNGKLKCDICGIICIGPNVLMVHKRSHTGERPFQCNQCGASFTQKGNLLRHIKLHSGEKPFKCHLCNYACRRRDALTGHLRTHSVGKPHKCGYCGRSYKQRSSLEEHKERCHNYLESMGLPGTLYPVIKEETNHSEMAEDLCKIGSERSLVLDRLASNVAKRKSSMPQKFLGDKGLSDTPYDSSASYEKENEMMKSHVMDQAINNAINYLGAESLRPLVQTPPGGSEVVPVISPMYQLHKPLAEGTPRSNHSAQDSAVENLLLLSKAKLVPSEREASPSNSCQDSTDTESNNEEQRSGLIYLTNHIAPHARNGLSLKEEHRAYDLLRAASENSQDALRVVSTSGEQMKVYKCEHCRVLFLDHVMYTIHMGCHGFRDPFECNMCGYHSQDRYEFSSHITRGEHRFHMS
Procedure: (§1) CK1alpha/Ikaros/Aiolos/ZFP91 Selectivity determination by Western Blot Assay
(§2) MM1S cells were purchased from ATCC (cat. Number CRL-2974), sub-cultured in 90% RPMI 1640 with 10% FBS, supplemented with 1× P/S and incubated at 37° C., 5% CO2. Compounds were stored as 10 mM DMSO stock. For the assay, MM1S cells (3 million cells/well) were plated in 6-well plates and incubated over night. Cells were treated with respective compounds using a serial dilution: 0.3 μM, 3 μM and 30 μM as well as a vehicle only (DMSO) control for 6 hours. Media with suspension cells was subsequently transferred to 15 mL conical tubes, wells rinsed twice with ice-cold PBS and merged with cell suspension in respective 15 mL conical tube. Cells were spinned down, supernatant aspirated, pellets resuspended in ice-cold PBS and transferred to microtubes. Cells were spinned down, supernatant aspirated and pellets resuspended in 120 μL RIPA lysis buffer supplemented with protease and phosphatase inhibitors. Cell lysates were incubated on ice for 20 minutes followed by centrifugation at >20,000×g for 5 mM. Supernatants were transferred to fresh microtubes and stored at −80° C. Total protein concentration was determined using a BCA assay with a BSA standard curve and concentration of all samples was adjusted to 1 mg/mL. 25 μL 4× LDS sample buffer supplemented with 100 mM DTT was added to 75 μL sample. Samples were centrifuged (8,000×g, 1 min) and incubated at 95° C. for […] followed by another centrifugation step (8,000×g, 1 mM). 20 μL of each sample was loaded on a 4-12% gel alongside a protein molecular weight marker. Gels were run in the presence of MOPS buffer at 80 Volts for […], followed by 120 Volts for 1.5 h and proteins subsequently transferred onto nitrocellulose membranes at 20 Volts for 7 mM using an iBlot2 Gel Transfer Device. Membranes were then cut horizontally into two pieces, covering 80-50 kDa and 50-25 kDa. Blocking the membranes was performed by gently shaking in 5% (w/v) skim milk in TSB-T for 1 hr at room temperature. All primary antibodies were used at a 1/1000 in 5% (w/v) BSA dissolved in TBST and incubated with membranes over night at 4° C. After three washes with 1× TBST for 5 mM, HRP-coupled secondary antibodies diluted in 5% (w/v) BSA/TBST (Goat Anti-Rb IgG, dil. 1/10,000; Goat Anti-Mouse IgG, dil. 1/5000) were added for 1 hr at room temperature. After three washes with 1× TBST (5 minutes each), membranes were incubated with ECL reagent for 1 mM at room temperature. Chemiluminescence signals were then detected using a LAS-4000 system with default settings and signals quantified using Image Studio Lite software (version 5.2). Membrane parts previously incubated with antibody against CK1alpha were stripped off antibodies by incubating with stripping buffer for 30 minutes followed by three washed with TBST (5 mM each), blocking with 5% (w/v) skim milk for 1 hr, and incubation with primary antibody against GAPDH overnight at 4° C. Subsequent washes, incubation with secondary antibody and signal acquisition were performed as described above.
(§3) Table 5 assigns each compound a code indicating the ability for the degradation of IKZF1, IKZF3, CK1alpha and ZFP91: A, B, C, D, E or F. According to the code, A represents a no degradation observed at 30 μM, B represents trace degradation at 30 μM (below 20%), C represents weak degradation at 30 μM (below 50%), D represents degradation at 30 μM (>90%), E represents degradation at 3 μM (>90%) and F represents degradation at 0.3 μM (>90%).

CK1alpha = target: T3, CK1alpha (Homo sapiens, UniProt P48729); test: Selectivity determination by Western Blot assay in MM1S cells: CK1alpha; assay type: cell-based; set-up: key: A represents a no degradation observed at 30 μM; B represents trace degradation at 30 μM (below 20%); C represents weak degradation at 30 μM (below 50%); D represents degradation at 30 μM (>90%); E represents degradation at 3 μM (>90%); F represents degradation at 0.3 μM (>90%); conditions: MM1S cells, 0.3, 3 and 30 μM, 6 hours
T3 construct: MM1S cells were purchased from ATCC (cat. Number CRL-2974); endogenous in cells; host or cells: MM1S (ATCC CRL-2974)
T3 sequence (Q96SW2 whole entry partner): as the sequence (Q96SW2 whole entry) above
T3 sequence (Q16531 2-1140 partner limits assumed): as the sequence (Q16531 2-1140 partner limits assumed) above
T3 sequence (P48729 whole entry): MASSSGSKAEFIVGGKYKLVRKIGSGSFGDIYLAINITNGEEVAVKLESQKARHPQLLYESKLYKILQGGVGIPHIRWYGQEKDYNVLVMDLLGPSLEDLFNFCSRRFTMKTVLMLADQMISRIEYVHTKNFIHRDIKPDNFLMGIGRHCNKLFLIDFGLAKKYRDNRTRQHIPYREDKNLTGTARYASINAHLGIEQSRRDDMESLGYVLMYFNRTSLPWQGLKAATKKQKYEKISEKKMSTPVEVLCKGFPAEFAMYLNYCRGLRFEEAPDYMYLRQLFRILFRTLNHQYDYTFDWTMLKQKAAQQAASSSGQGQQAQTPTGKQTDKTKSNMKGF
Procedure: as §1, §2, §3

GSPT1 = GSPT1 (Homo sapiens, UniProt P15170+Q96SW2); test: Selectivity determination by Western Blot assay in MM1S cells: GSPT1; assay type: cell-based; set-up: MM1S cells were purchased from ATCC (cat. Number CRL-2974); endogenous in cells; host or cells: MM1S (ATCC CRL-2974); conditions: MM1S cells, 0.3, 3 and 30 μM, 6 hours
GSPT1, sequence (P15170 whole entry): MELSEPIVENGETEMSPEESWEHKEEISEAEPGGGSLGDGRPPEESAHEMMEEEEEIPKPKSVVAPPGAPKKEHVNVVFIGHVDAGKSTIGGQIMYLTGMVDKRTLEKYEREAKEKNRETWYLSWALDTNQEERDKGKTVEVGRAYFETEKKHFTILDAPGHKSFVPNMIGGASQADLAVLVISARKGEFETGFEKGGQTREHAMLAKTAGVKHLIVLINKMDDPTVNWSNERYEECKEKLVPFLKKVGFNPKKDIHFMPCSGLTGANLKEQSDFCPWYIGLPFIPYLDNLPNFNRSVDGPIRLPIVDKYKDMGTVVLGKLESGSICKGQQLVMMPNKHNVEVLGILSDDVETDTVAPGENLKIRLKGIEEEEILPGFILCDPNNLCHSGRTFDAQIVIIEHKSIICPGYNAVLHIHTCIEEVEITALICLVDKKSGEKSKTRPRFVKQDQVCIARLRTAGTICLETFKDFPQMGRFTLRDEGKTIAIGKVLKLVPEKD
GSPT1, sequence (Q96SW2 whole entry): as the sequence (Q96SW2 whole entry) above
GSPT1, sequence (Q16531 2-1140 partner limits assumed): as the sequence (Q16531 2-1140 partner limits assumed) above
Procedure: [Worded in the source for another target; this target is reported under the same test.] as §1, §2, §3

Compound | pIC50 [1] | IKZF1 degradation code (IKZF1) | CK1alpha degradation code (CK1alpha) | GSPT1 degradation code (GSPT1)
Cc1cc(C)c(NC(=O)NCc2ccc3c(c2)C(=O)N(C2CCC(=O)NC2=O)C3)cc1Cl (stereo not shown) [Compound 85] | 6.67 | A | B (B represents trace degradation at 30 μM (below 20%)) | E (E represents degradation at 3 μM (>90%))
Cc1c(Cl)cc(NC(=O)NCc2ccc3c(c2)C(=O)N(C2CCC(=O)NC2=O)C3)cc1CN1CCOCC1 (stereo not shown) [Compound 82] | 6.43 | A | A | F (F represents degradation at 0.3 μM (>90%))
O=C1CCC(N2Cc3ccc(CNC(=O)Nc4cccc(CN5CCOCC5)c4)cc3C2=O)C(=O)N1 (stereo not shown) [Compound 105] | 6.53 | B (B represents trace degradation at 30 μM (below 20%)) | A | E (E represents degradation at 3 μM (>90%))
Cc1c(Cl)cc(NC(=O)NCc2ccc3c(c2)C(=O)N(C2CCC(=O)NC2=O)C3)cc1CC1COCOC1 (stereo not shown) [Compound 132] | 6.42 | A | C (C represents weak degradation at 30 μM (below 50%)) | F (F represents degradation at 0.3 μM (>90%))

The next lines start with results.

pIC50 [1] | IKZF1 degradation code (IKZF1) | CK1alpha degradation code (CK1alpha) | Compound | GSPT1 degradation code (GSPT1)
6.56 | A | A | Cc1ccc(NC(=O)NCc2ccc3c(c2)C(=O)N(C2CCC(=O)NC2=O)C3)c(Cl)c1Cl (stereo not shown) [Compound 87] | E (E represents degradation at 3 μM (>90%))
6.33 | A | A | Cc1ccc(NC(=O)NCc2ccc3c(c2)C(=O)N(C2CCC(=O)NC2=O)C3)cc1Cl (stereo not shown) [Compound 8] | F (F represents degradation at 0.3 μM (>90%))
6.55 | A | A | Cc1c(Cl)cc(NC(=O)NCc2ccc3c(c2)C(=O)N(C2CCC(=O)NC2=O)C3)cc1CN(C)C (stereo not shown) [Compound 75] | E (E represents degradation at 3 μM (>90%))
